In data set [1] the target is T1, serotonin S2 (5-HT2) receptors (Rattus norvegicus, UniProt P14842).
T1 construct: from tissue; host or cells: cerebral cortex membranes of male Wistar (Mol:Wist) rats
In words: Inhibition of 3H-ketanserin binding to serotonin S2 (5-HT2) receptors in rat cortex in vitro. To be noted: for IC50: 0.5 nM 3H-ketanserin, rat cortex membranes, 37° C., 30 min. The protocol:
(§1) The prodrugs of the invention were tested in vitro for 5-HT2 receptor affinity (^3 H-ketanserin binding) and for 5-HT2 antagonistic effect in vivo (antagonism of quipazine induced head twiches).
Inhibition of ^3 H-ketanserin Binding to Serotonin S2 (5-HT2)Receptors in Rat Cortex in vitro
By this method the inhibition by drugs of the binding of ^3 H-Ketanserin (0,5 nM) to serotonin S2 (5-HT2) receptors in membranes from rat corex is determined in vitro. Method in Hyttel, Pharmacol. & Toxicol, 61, 126-129 1987.
Male Wistar (Mol:Wist) rats are sacrificed and cortical tissue is dissected and weighed. The tissue is homogenized (Ultra Turrax, 10 sec.) in 10 ml of ice-cold 50 mM tris buffer pH 7.7 (at 25° C.). The centrifuge glass ware used in this step has been rinsed by sonication for 10 min. in ethanol. The homogenate is centrifuged twice at 20,000 g for 10 min. at 4° C. with rehomogenization of the pellet in 10 ml ice-cold buffer. The final pellet is homogenized in 500 vol (w/v) ice-cold buffer. Incubation tubes kept on ice in triplicate receive 100 μl of drug solution in water (or water for total binding) and […] of tissue suspension (final tissue content corresponds to 4 mg original tissue). The binding experiment is initiated by addition of 100 μl of ^3 H-Ketanserin (final concentration 0.5 nM) and by placing the tubes in a 37° C. water bath. After incubation for 30 min. the samples are filtered under vacuum (0-50 mBar) through Whatman GF/F filters (25 mm). The tubes are rinsed with 5 ml ice-cold buffer which are then poured on the filters. Thereafter, the filters are washed with 2×5 ml of buffer. The filters are placed in counting vials and 4 ml of appropriate scintillation fluid (e.g. Picofluor™ 15) are added. After shaking for 1 h and storage 2 hrs in the dark the content of radioactivity is determined by liquid scintillation counting. Specific binding is obtained by subtracting the nonspecific binding in the presence of 1 μM mianserin. For determination of the inhibition of binding five concentrations of drugs covering 3 decades are used.
The IC50 value is determined as the concentration at which the binding is 50% of the total binding in control samples minus the nonspecific binding in the presence of 1 μM mianserin.
^3 H-Ketanserin=[ethylene-^3 H]-ketanserin hydrochloride from New England Nuclear, specific activity 60-80 Ci/mmol.

A further data set has as its target T2, 5-HT2 (Rattus norvegicus, UniProt P14842).
T2 construct: Four rats, male Wistar (Mol:Wist) SPF rats, are used at each dose level; from tissue; host or cells: living male Wistar (Mol:Wist) SPF rats; receptor endogenous to the animal
In words: Quipazine inhibition (antagonism of quipazine induced head twitches in rats). Conditions: for ED50: po, p.o. 24 hrs before quipazine (6.8 mg/kg, s.c.), head twitches, rat. The data set is classed as in vivo. The protocol:
as §1
Quipazine is a 5-HT2 agonist, which induces head twitches in rats. The test is a test for 5-HT2 -antagonistic effect measuring the ability to inhibit head twitches. The method and test results for some reference substances are published by Arnt et al. (Drug Dev. Res., 16, 59-70, 1989).
Test substance is given p.o. 24 hrs before quipazine administration (6.8 mg/kg, s.c., dimaleate). Four rats, male Wistar (Mol:Wist) SPF rats, are used at each dose level. A control group is included each test day. After quipazine administration the rats are individually placed in the observation cages and head twitches are counted in an observation period of 10 min. 30-40 min. after injection of quipazine.
Total number of head twitches in each group are calculated and the result for each dose is expressed as percent of the response in the control group. ED50 values are calculated by log-probit analysis. The test must be repeated if the average number of head twitches is lower than 9 in the control group.

Data set [2] can be described thus: Sertindole concentration in dog serum after i.m. depot dosing in Viscoleo (HPLC). The data set is classed as in vivo, Beagle dogs. To be noted: i.m. depot formulation in dogs; FIG. 1. How it is done: The depot effects of the compounds of the invention were determined as described in the following example:
Seven Beagle dogs were used. One male and one female dog were used for each preparation exept for 1a where only one female dog was used. The compounds were dissolved in Viscoleo®. One ml Viscoleo® equivalent 1 kg dog. The dogs were dosed i.m. approx. 5 ml in each thigh.
Blood samples were drawn at 1,2, 4, 8, and 24 hours after dosing, and 2, 4, 7, 10, and 14 days after dosing.
The serum samples were analyzed by HPLC using a system consisting of a Spherisorb S5W column (25 cm×4.6 mm) and a Hewlett Packard HP 1090 chromatograph with a HP 1050 UV-absorbance detector with a measuring wavelength of 254 nm. Elution was performed with n-heptane/2-propanol/conc. ammonia/water in the ratio 100/18.4/0.5/0.2, v/v as eluent at ambient temperature with a pressure of approximately 70 bar and a flow rate of 1 ml/min.

18 compounds from patent US5428036A (H. Lundbeck A/S, priority 1990, dated 1995) can be followed below.

The structures appear in SMILES notation.

As a reminder, the IC50 is the concentration at which inhibition is half-maximal. Low readings indicate inhibition by little substance, high ones a need for much substance. What is called ED50 is the dose that gives a 50% effect, or the effect in half of the subjects. A high value points to weaker potency.

T2 sequence (P14842 whole entry): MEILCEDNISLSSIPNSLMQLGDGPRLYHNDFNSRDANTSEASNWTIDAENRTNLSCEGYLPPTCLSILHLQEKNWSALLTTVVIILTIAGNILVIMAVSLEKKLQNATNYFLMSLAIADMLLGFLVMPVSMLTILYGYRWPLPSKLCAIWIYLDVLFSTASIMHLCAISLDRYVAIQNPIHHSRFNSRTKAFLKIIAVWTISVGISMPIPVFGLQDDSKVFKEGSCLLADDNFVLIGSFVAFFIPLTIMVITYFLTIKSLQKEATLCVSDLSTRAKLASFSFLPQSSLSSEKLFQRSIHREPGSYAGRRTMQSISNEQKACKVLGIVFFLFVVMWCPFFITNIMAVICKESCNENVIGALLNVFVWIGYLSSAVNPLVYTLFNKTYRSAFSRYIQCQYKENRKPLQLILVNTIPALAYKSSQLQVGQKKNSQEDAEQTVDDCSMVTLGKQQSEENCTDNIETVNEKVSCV
T1 sequence (P14842 whole entry): as above

`CC(=O)N1CCN(CCN2CCC(c3cn(-c4ccc(F)cc4)c4ccc(Cl)cc34)CC2)C1=O` [Compound 1a] had an IC50 in data set [1] of 1.2 nM. This compound also gave a 50% effective dose (ED50) on 5-HT2 of 0.029 µmol/kg. For the same compound, in data set [2], the “decomposition to sertindole after injection of a depot formulation” value is “decompose to sertindole after injection of a depot formulation”.
`CCCCCCCCCC(=O)N1CCN(CCN2CCC(c3cn(-c4ccc(F)cc4)c4ccc(Cl)cc34)CC2)C1=O` [Compound 1b, 5-chloro-3-[1-[2-(3-decanoyl-2-imidazolidinon-1-yl)ethyl]-4-piperidyl]-1-(4-fluorophenyl)-1H-indole] registered an IC50 in data set [1] of 57 nM. On 5-HT2, this compound registered an ED50 of 0.09 µmol/kg.
`CCCCCCCCCCCCCCCC(=O)N1CCN(CCN2CCC(c3cn(-c4ccc(F)cc4)c4ccc(Cl)cc34)CC2)C1=O` [Compound 1e] came in with an IC50 in data set [1] of 47 nM. The median effective dose (ED50) on 5-HT2 was 0.77 µmol/kg.
In turn, `O=C(c1ccccc1)N1CCN(CCN2CCC(c3cn(-c4ccc(F)cc4)c4ccc(Cl)cc34)CC2)C1=O` [Compound 1f, 3-[1-[2-(3-benzoyl-2-imidazolidinon-1-yl)ethyl]-4-piperidyl]-5-chloro-1-(4-fluorophenyl)-1H-indole] displayed an IC50 in data set [1] of 9.3 nM. The ED50 on 5-HT2 came to 0.05 µmol/kg.
For `CCCCCCCC/C=C\CCCCCCCC(=O)N1CCN(CCN2CCC(c3cn(-c4ccc(F)cc4)c4ccc(Cl)cc34)CC2)C1=O` [Compound 2a] the same measures were 260 nM and 0.55 µmol/kg.
The compound `CN(C)C(=O)N1CCN(CCN2CCC(c3cn(-c4ccc(F)cc4)c4ccc(Cl)cc34)CC2)C1=O` [Compound 4a, 5-Chloro-3-[1-[2-(3-dimethylcarbamyl-2-imidazolidinon-1-yl)ethyl]-4-piperidyl]-1-(4-fluorophenyl)-^1 H-indole] gave an IC50 in data set [1] of 0.9 nM. The median effective dose (ED50) on 5-HT2 was found to be 0.24 µmol/kg.
In data set [1], `CCCCCCCCCCOC(=O)N1CCN(CCN2CCC(c3cn(-c4ccc(F)cc4)c4ccc(Cl)cc34)CC2)C1=O` [Compound 4d, 5-chloro-3-[1-[2-[3-(1-decyl)oxycarbonyl-2-imidazolidinon-1-yl]ethyl]-4-piperidyl]-1-(4-fluorophenyl)-1H-indole] yielded an IC50 of 13 nM. The compound also gave an ED50 at 5-HT2 of 1.1 µmol/kg.
For the compound `O=C1N(CO)CCN1CCN1CCC(c2cn(-c3ccc(F)cc3)c3ccc(Cl)cc23)CC1` [Compound 5a, 5-Chloro-1-(4-fluorophenyl)-3-[1-[2-(3-hydroxymethyl-2-imidazolidinon-1-yl)ethyl]-4-piperidyl]-1H-indole], in data set [1], the IC50 was 0.47 nM. The same compound returned an ED50 at 5-HT2 of 0.037 µmol/kg.
On the same counts, the results for `O=C1N(CCN2CCC(c3cn(-c4ccc(F)cc4)c4ccc(Cl)cc34)CC2)CCN1CN1CCOCC1` [Compound 6a, 5-Chloro-1-(4-fluorophenyl)-3-[1-[2-[3-(1-morpholinomethyl)-2-imidazolidinon-1-yl]ethyl]-4-piperidyl]-1H-indole] are 0.97 nM and 0.079 µmol/kg.
In data set [1], `CN(C)CN1CCN(CCN2CCC(c3cn(-c4ccc(F)cc4)c4ccc(Cl)cc34)CC2)C1=O` [Compound 6b, 5-chloro-3-[1-[2-(3-dimethylaminomethyl-2-imidazolidinon-1-yl)ethyl]-4-piperidyl]-1-(4-fluorophenyl)-1H-indole] returned an IC50 of 0.6 nM.
As for `CCOCN1CCN(CCN2CCC(c3cn(-c4ccc(F)cc4)c4ccc(Cl)cc34)CC2)C1=O` [Compound 7a, 5-Chloro-3-[1-[2-(3-ethoxymethyl-2-imidazolidinon-1-yl)ethyl]-4-piperidyl]-1-(4-fluorophenyl)-1H-indole], the IC50 in data set [1] is 1.2 nM. For the same compound, the ED50 at 5-HT2 was determined as 0.081 µmol/kg.
On the same counts, the results for `CCCCCCCCCCOCN1CCN(CCN2CCC(c3cn(-c4ccc(F)cc4)c4ccc(Cl)cc34)CC2)C1=O` [Compound 7d] are 49 nM and 0.15 µmol/kg.
The compound `CC(C)c1ccc(C(=O)N2CCN(CCN3CCC(c4cn(-c5ccc(F)cc5)c5ccc(Cl)cc45)CC3)C2=O)cc1` [Compound 8a, 5-Chloro-1-(4-fluorophenyl)-3-[1-[2-[3-(4-isopropylbenzoyl)-2-imidazolidinon-1-yl]ethyl]-4-piperidyl]-1H-indole] showed an IC50 in data set [1] of 20 nM. At 5-HT2, this compound showed an ED50 of 0.12 µmol/kg.
For `CC(=O)Oc1ccccc1C(=O)N1CCN(CCN2CCC(c3cn(-c4ccc(F)cc4)c4ccc(Cl)cc34)CC2)C1=O` [Compound 8c], in data set [1], the IC50 came out at 24 nM. Also, the 50% effect level at 5-HT2 (ED50) was put at a dose of 0.057 µmol/kg.
In data set [1], `CCCC(=O)N1CCN(CCN2CCC(c3cn(-c4ccc(F)cc4)c4ccc(Cl)cc34)CC2)C1=O` [Compound 8d, 3-[1-[2-(3-butanoyl-2-imidazolidinon-1-yl)ethyl]-4-piperidyl]-5-chloro-1(4-fluorophenyl)-1H-indole] showed an IC50 of 5.6 nM. In addition, the 50% effect level on 5-HT2 (ED50) was put at a dose of 0.014 µmol/kg.
Take `CCCCCC(=O)N1CCN(CCN2CCC(c3cn(-c4ccc(F)cc4)c4ccc(Cl)cc34)CC2)C1=O` [Compound 8e, 5-chloro-1-(4-fluorophenyl)-3-[1-[2-(3-hexanoyl-2-imidazolidinon-1-yl)ethyl]-4-piperidyl]-1H-indole]: in data set [1], the IC50 is 38 nM. On 5-HT2, this compound displayed an ED50 of 0.039 µmol/kg.
For `CCCCCCCC(=O)N1CCN(CCN2CCC(c3cn(-c4ccc(F)cc4)c4ccc(Cl)cc34)CC2)C1=O` [Compound 8f, 5-chloro-1-(4-fluorophenyl)-3-[1-[2-(3-octanoyl-2-imidazolidinon-1-yl)ethyl]-4-piperidyl]-1H-indole] the same measures were 140 nM and 0.092 µmol/kg.
As to `O=C1NCCN1CCN1CCC(c2cn(-c3ccc(F)cc3)c3ccc(Cl)cc23)CC1` [sertindole, 5-chloro-1-(4-fluorophenyl)-3-[1-[2-(2-imidazolidinon-1-yl)ethyl]-4-piperidyl]-1H-indole, reference compound], the “Serotonin S2 (5-HT2) antagonism in vitro” value in data set [1] (in vitro, statement in words) is “very potent”. For the same compound, the “Serotonin S2 (5-HT2) antagonism in vivo” value at 5-HT2 (in vivo, statement in words) is given as “very potent”.
